Assay results taken from article PMC8359193, “Summary of reference chemicals evaluated by the fish short‐term reproduction assay, OECD TG229, using Japanese Medaka, Oryzias latipes” (Journal of Applied Toxicology, 2021).

Test system: Japanese medaka (Oryzias latipes)
Assay: Fish short-term reproduction assay (FSTRA, OECD TG229), 21-day flow-through exposure
Details: for Fertility rate (%) / Mortality (%) Female / Mortality (%) Male / Number of fertilized eggs / Number of total eggs / SSC Female / VTG (ng/mg of liver) Female / VTG (ng/mg of liver) Male: 21 days; for GSI Female / GSI Male / HSI Female / HSI Male / Length Female / Length Male / Weight Female / Weight Male: at completion of exposure
Outline: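 Japanese medaka (NIES-R strain, 16 ± 2 weeks old) were exposed in flow-through tanks for 3 weeks, three males and three females per tank, four replicate tanks per group, with a dilution water control. Concentrations were spaced by a factor of 2–5. Eggs were collected daily and counted as fertilized or unfertilized.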

**Q.** How did the “LOEC on VTG induction in male (in molarity)” value (hepatic VTG, 21-day exposure) turn out when `Cc1cc(O)ccc1Cl` [CMP, 4‐Chloro‐3‐methylphenol] was run?
**A.** The value was 7.4 µM.

**Q.** What about the “LOEC (in molarity) for male VTG: times higher than that of E2” value (in vivo) of the same compound?
**A.** Its value is 110,000 times.

**Q.** What about the “Fertility rate (%)” value (measured conc. 108 μg/L) of the same compound?
**A.** Its value is 94%.

**Q.** And the “Mortality (%) Female” value (measured conc. 108 μg/L)?
**A.** The value was 0%.

**Q.** What about the “Mortality (%) Male” value (measured conc. 108 μg/L) of the same compound?
**A.** Its value is 0%.

**Q.** What about the “Number of fertilized eggs” value (measured conc. 108 μg/L) of the same compound?
**A.** The value was 24.

**Q.** What about the “Number of total eggs” value (measured conc. 108 μg/L) of the same compound?
**A.** The value was 26 ± 3.2 /female/day.

**Q.** And the “SSC Female” value (measured conc. 108 μg/L)?
**A.** The value was 0 ± 0.

**Q.** And the “VTG (ng/mg of liver) Female” value (measured conc. 108 μg/L)?
**A.** Its value is 2,610 ± 265 ng/mg of liver.

**Q.** And the “VTG (ng/mg of liver) Male” value (measured conc. 108 μg/L)?
**A.** The value was 2.9 ± 4.4 ng/mg of liver.

**Q.** What about the “GSI Female” value (measured conc. 108 μg/L) of the same compound?
**A.** The value was 9.9%.

**Q.** And the “GSI Male” value (measured conc. 108 μg/L)?
**A.** The value was 0.80%.

**Q.** And the “HSI Female” value (measured conc. 108 μg/L)?
**A.** The value was 3.9%.

**Q.** And the “HSI Male” value (measured conc. 108 μg/L)?
**A.** The value was 1.9%.

**Q.** And the “Length Female” value (measured conc. 108 μg/L)?
**A.** Its value is 36.5 mm.

**Q.** And the “Length Male” value (measured conc. 108 μg/L)?
**A.** The value was 36.0 mm.

**Q.** What about the “Weight Female” value (measured conc. 108 μg/L) of the same compound?
**A.** The value was 565 mg.

**Q.** What about the “Weight Male” value (measured conc. 108 μg/L) of the same compound?
**A.** The value was 498 mg.

**Q.** What about the “Fertility rate (%)” value (measured conc. 350 μg/L) of the same compound?
**A.** The value was 94%.

**Q.** What about the “Mortality (%) Female” value (measured conc. 350 μg/L) of the same compound?
**A.** Its value is 0%.

**Q.** And the “Mortality (%) Male” value (measured conc. 350 μg/L)?
**A.** Its value is 0%.

**Q.** What about the “Number of fertilized eggs” value (measured conc. 350 μg/L) of the same compound?
**A.** Its value is 24.

**Q.** And the “Number of total eggs” value (measured conc. 350 μg/L)?
**A.** Its value is 25 ± 3.9 /female/day.

**Q.** What about the “SSC Female” value (measured conc. 350 μg/L) of the same compound?
**A.** The value was 0 ± 0.

**Q.** What about the “VTG (ng/mg of liver) Female” value (measured conc. 350 μg/L) of the same compound?
**A.** Its value is 2,650 ± 214 ng/mg of liver.

**Q.** What about the “VTG (ng/mg of liver) Male” value (measured conc. 350 μg/L) of the same compound?
**A.** Its value is 9.9 ± 18.3 ng/mg of liver.

**Q.** And the “GSI Female” value (measured conc. 350 μg/L)?
**A.** Its value is 9.8%.

**Q.** And the “GSI Male” value (measured conc. 350 μg/L)?
**A.** The value was 0.68%.

**Q.** What about the “HSI Female” value (measured conc. 350 μg/L) of the same compound?
**A.** Its value is 4.4%.

**Q.** What about the “HSI Male” value (measured conc. 350 μg/L) of the same compound?
**A.** The value was 2.4%.

**Q.** What about the “Length Female” value (measured conc. 350 μg/L) of the same compound?
**A.** The value was 35.4 mm.

**Q.** And the “Length Male” value (measured conc. 350 μg/L)?
**A.** Its value is 36.4 mm.

**Q.** What about the “Weight Female” value (measured conc. 350 μg/L) of the same compound?
**A.** Its value is 509 mg.

**Q.** What about the “Weight Male” value (measured conc. 350 μg/L) of the same compound?
**A.** Its value is 529 mg.

**Q.** What about the “Fertility rate (%)” value (measured conc. 1,060 μg/L) of the same compound?
**A.** Its value is 93%.

**Q.** What about the “Mortality (%) Female” value (measured conc. 1,060 μg/L) of the same compound?
**A.** Its value is 8.3%.

**Q.** What about the “Mortality (%) Male” value (measured conc. 1,060 μg/L) of the same compound?
**A.** Its value is 0%.

**Q.** And the “Number of fertilized eggs” value (measured conc. 1,060 μg/L)?
**A.** Its value is 23.

**Q.** What about the “Number of total eggs” value (measured conc. 1,060 μg/L) of the same compound?
**A.** The value was 25 ± 2.3 /female/day.

**Q.** What about the “SSC Female” value (measured conc. 1,060 μg/L) of the same compound?
**A.** Its value is 0 ± 0.

**Q.** And the “VTG (ng/mg of liver) Female” value (measured conc. 1,060 μg/L)?
**A.** Its value is 3,020 ± 702 ng/mg of liver.

**Q.** And the “VTG (ng/mg of liver) Male” value (measured conc. 1,060 μg/L)?
**A.** Its value is 33.8 ± 37.0 ng/mg of liver.

**Q.** What about the “GSI Female” value (measured conc. 1,060 μg/L) of the same compound?
**A.** Its value is 9.9%.

**Q.** And the “GSI Male” value (measured conc. 1,060 μg/L)?
**A.** Its value is 0.74%.

**Q.** And the “HSI Female” value (measured conc. 1,060 μg/L)?
**A.** The value was 3.9%.

**Q.** What about the “HSI Male” value (measured conc. 1,060 μg/L) of the same compound?
**A.** The value was 2.0%.

**Q.** And the “Length Female” value (measured conc. 1,060 μg/L)?
**A.** Its value is 35.2 mm.

**Q.** What about the “Length Male” value (measured conc. 1,060 μg/L) of the same compound?
**A.** Its value is 36.3 mm.

**Q.** And the “Weight Female” value (measured conc. 1,060 μg/L)?
**A.** Its value is 509 mg.

**Q.** And the “Weight Male” value (measured conc. 1,060 μg/L)?
**A.** The value was 505 mg.

**Q.** What about the “effect on fecundity (number of total eggs), in words” value (within the test concentrations, 21-day exposure) of the same compound?
**A.** Its value is “No effect”.
